Assay [1] relates to F. nucleatum. Briefly: MIC, CLSI reference method. It is filed as cell-based, Fusobacterium nucleatum. Conditions: 24 h. The method, then:
(§1) Cells were allowed to grow in the presence or absence (growth control) of the test agents for 24 hours. The MIC for each agent was defined as the concentration that induced a 100% growth inhibition (compared to no-drug control).

For assay [2], the system named is P. gingivalis. Put plainly: MIC, CLSI reference method. It is filed as cell-based. The note with it: 24 h. How it is done: as §1
The subject of assay [3] is S. mitis. Briefly: MIC, CLSI reference method. It is filed as cell-based. The note with it: 24 h. The method, then:
as §1

Assay [4] deals with S. mutans. Briefly: MIC, CLSI reference method. In kind it is cell-based. The note with it: 24 h. How it is done:
as §1

The test system of assay [5] is S. oralis. Briefly: MIC, CLSI reference method. It is filed as cell-based. The note with it: 24 h. The method, then:
as §1

Assay [6] has as its system S. pneumonia. Briefly: MIC, CLSI reference method. The note with it: 24 h. It is filed as cell-based. The method, then: as §1
Assay [7] concerns S. pyogenes. Briefly: MIC, CLSI reference method. The note with it: 24 h. In kind it is cell-based. How it is done:
as §1

Assay [8] concerns S. salivarius. Put plainly: MIC, CLSI reference method. It is filed as cell-based. The note with it: 24 h, 100% growth inhibition. The method, then:
as §1

Assay [9] relates to Y. enterocolitica. Briefly: MIC, CLSI reference method. It is filed as cell-based. Conditions: 24 h. How it is done: as §1
The subject of assay [10] is C. albicans. Put plainly: MIC, CLSI microdilution (Candida). It is filed as cell-based. A general note: Broth dilution looks for growth in wells or tubes with falling amounts of substance.
Assay [11] has as its system C. krusei. Put plainly: MIC, CLSI microdilution (Candida). It is filed as cell-based.
The subject of assay [12] is C. tropicalis. Briefly: MIC, CLSI microdilution (Candida). It is filed as cell-based.
Assay [13] relates to C. glabrata. Briefly: MIC, CLSI microdilution (Candida). It is filed as cell-based.
The test system of assay [14] is Streptococcus salivarius, Candida albicans. Briefly: in vitro filter insert-based barrier model (glycerin / xanthan gum). How it is done:
To identify further examples of concentrations of glycerin and xanthan gum that can form a barrier effective in preventing the passage of microorganisms, different concentrations of the gum xanthan gum and humectant glycerin were tested (5%-95% glycerin; 0.005%-0.5% xanthan gum) singly and in combination using an in vitro filter insert-based barrier model. […] Glycerin or xanthan gum or their combinations (100 μL aliquots) were overlaid on the surface of the filter to form a barrier. […] Next, 5×10^4 cells of either bacteria or fungi were applied on top of the formed barrier in the filter inserts. Next, we placed these filter inserts on the surface of agar medium (Brain Heart Infusion (BHI) medium for bacteria, Sabouraud Dextrose (SD) medium for fungi) in 6-well plates. The plates along with the filter inserts were incubated overnight for 24 hours at 37° C. The plates were monitored for the presence of bacterial or fungal growth CFUs (colony forming units) in the agar medium as well as in the filter insert.

Take `[H]/N=C(\N/C(=N/[H])NCCCCCCNC(=N)NC(=N)Nc1ccc(Cl)cc1)Nc1ccc(Cl)cc1` [Chlorhexidine, chlorhexidine gluconate]: the MIC in assay [1], in assay [2], in assay [3], in assay [4], in assay [5] and in assay [6] was 19.6 μg/mL chlorhexidine in each case. For the same compound, the MIC in assay [7], in [8], in [9], in assay [10], in [11] and in assay [12] was 19.6 μg/mL chlorhexidine in each case. Also, in [13], the MIC is given as 19.6 μg/mL chlorhexidine.

On to `OCC(O)CO` [glycerin], for which, in [14], the “concentration at which a barrier was formed when tested alone” value is “greater than or equal to 55%”.
